Drawing on PubChem BioAssay (NCI), this text covers TGI and GI50 for twelve compounds.

Molecules are shown by their SMILES.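 96-well plates; 48 h exposure; 5 concentrations. Endpoints by linear interpolation between flanking doses. Not reached: highest tested concentration assigned. GI50: concentration for 50% inhibition of growth. TGI: concentration producing complete growth inhibition.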

Some test systems named below: HOP-92 NSCLC; SF-268 CNS; OVCAR-5 ovarian; COLO 205 colon; HCT-15 colon; A549 NSCLC; CAKI-1 renal; A498 renal; SN12C renal; SK-MEL-2 melanoma.
What all share (experiment): inhibition of tumour cell growth, NCI panel, 48 h

As for `O/N=C1\C(=C\c2ccc3c(c2)OCCO3)CCCC1C(NO)c1ccc2c(c1)OCCO2` (stereo not drawn), the TGI in the assay with HOP-92 NSCLC was 93.4 µM; in the assay on SF-268 CNS it was 32 µM; in the assay on OVCAR-5 ovarian, above 100 µM; with COLO 205 colon, 98.4 µM; in the assay on HCT-15 colon, 68.6 µM; with A549 NSCLC it was above 100 µM. In addition, the values for the TGI in the assay on CAKI-1 renal, in the assay on A498 renal and with SN12C renal were above 100 µM, 60 µM and 29.8 µM, respectively.
For `CCSc1nc(N)c2cnn(CC)c2n1`, the GI50 is 23.3 µM in the assay on SF-268 CNS; 2.12 µM in the assay on SK-MEL-2 melanoma; 27.1 µM in the assay with OVCAR-5 ovarian; 18.9 µM in the assay with COLO 205 colon; 6.21 µM in the assay with HCT-15 colon; 3.83 µM with A549 NSCLC. Besides, the GI50 was 4.63 µM in the assay on CAKI-1 renal, 3.7 µM in the assay on A498 renal and 4.12 µM with SN12C renal. The TGI with SF-268 CNS is 66.7 µM; with SK-MEL-2 melanoma it was 5.88 µM; in the assay on OVCAR-5 ovarian it was above 100 µM; in the assay on COLO 205 colon it was above 100 µM; in the assay with HCT-15 colon it was 25.3 µM; with A549 NSCLC, 20.9 µM. Further, the results for the TGI in the assay on CAKI-1 renal, in the assay on A498 renal and with SN12C renal were 56.3 µM, 22.8 µM and 26.1 µM, respectively.
Regarding `CC(=O)[O][Hg][c]1s[c]([Hg][O]C(C)=O)[c]([Hg][O]C(C)=O)[c]1[Hg][O]C(C)=O`, the GI50 in the assay on HOP-92 NSCLC was 2.92 µM; in the assay with SF-268 CNS, 5.92 µM; in the assay on SK-MEL-2 melanoma it was 2.19 µM; in the assay on COLO 205 colon, 15.9 µM; with HCT-15 colon, 4.51 µM; with A549 NSCLC, 55.8 µM. Besides, the GI50 in the assay with A498 renal is 20.1 µM; in the assay with SN12C renal it was 8.33 µM. Further, the TGI in the assay with HOP-92 NSCLC was 5.88 µM; in the assay on COLO 205 colon it was 38.6 µM; with HCT-15 colon it was 30.4 µM; with A549 NSCLC, above 100 µM; with A498 renal, 35.1 µM; with SN12C renal, above 100 µM.
In the case of `COc1cc(CCc2ccncc2)cc(OC)c1OC`, the TGI in the assay on HOP-92 NSCLC, in the assay with SF-268 CNS, with OVCAR-5 ovarian, in the assay with COLO 205 colon, in the assay with HCT-15 colon and in the assay with A549 NSCLC was above 100 µM in each case. Also, the TGI in the assay with CAKI-1 renal, with A498 renal and in the assay on SN12C renal was above 100 µM throughout.
As to `CC1=CC(=O)N2C(OC[C@@H]2c2ccccc2)O1` (stereo partly drawn), the TGI in the assay on HOP-92 NSCLC, in the assay with SF-268 CNS, in the assay on SK-MEL-2 melanoma, in the assay on COLO 205 colon, with HCT-15 colon and in the assay with A549 NSCLC was above 100 µM in each case. Moreover, the TGI in the assay on CAKI-1 renal and with SN12C renal was above 100 µM in each case.
In the case of `N#C/C(=C1\OC(N)=C(c2ccc(Cl)cc2)C1=O)c1ccc(Cl)cc1`, the TGI was 32.2 µM with HOP-92 NSCLC; above 100 µM with SF-268 CNS; 9.74 µM with OVCAR-5 ovarian; 32.8 µM in the assay with COLO 205 colon; 50.9 µM in the assay on A549 NSCLC; 34.1 µM in the assay with CAKI-1 renal. In addition, the TGI worked out at 31.1 µM with A498 renal and 23 µM in the assay with SN12C renal.
As for `CC(=O)/C(=C/N1CCN(C(=O)c2ccco2)C1=S)C(=O)c1ccccc1`, the GI50 in the assay on HOP-92 NSCLC was 11.1 µM; in the assay on SF-268 CNS, 10.7 µM; with COLO 205 colon it was 16.5 µM; in the assay with HCT-15 colon, 4.71 µM; in the assay with A549 NSCLC it was 10.8 µM; with CAKI-1 renal it was 9.29 µM. Further, the GI50 in the assay on SN12C renal was 7.65 µM. The TGI with HOP-92 NSCLC stood at 32.1 µM; with SF-268 CNS, 27 µM; with COLO 205 colon, 45.1 µM; in the assay with HCT-15 colon, 18.9 µM; in the assay with A549 NSCLC, 26.9 µM; in the assay on CAKI-1 renal, 32.5 µM. The TGI in the assay on SN12C renal worked out at 15.2 µM.
In the case of `C=Cc1cc(OC)c2c(c1)c(=O)oc1c2cc(OC)c2c(O)ccc(C3OC(C(C)O)C(O)C3O)c21` (stereo not drawn), the GI50 in the assay with HOP-92 NSCLC is 0.0126 µM; in the assay with SF-268 CNS, 0.00456 µM; with OVCAR-5 ovarian, 0.00309 µM; in the assay on COLO 205 colon, 0.0113 µM; with A549 NSCLC it was 0.0146 µM; in the assay with A498 renal, 0.00126 µM. The GI50 in the assay on SN12C renal is 0.0229 µM. For the same compound, the TGI with HOP-92 NSCLC was 0.3 µM; in the assay on SF-268 CNS, 0.117 µM; with OVCAR-5 ovarian it was 0.0969 µM; in the assay with COLO 205 colon, 0.102 µM; in the assay on A549 NSCLC, 0.414 µM; in the assay on A498 renal it was 0.00468 µM. In addition, in the assay on SN12C renal, the TGI amounted to 0.172 µM.
Regarding `COC1CC(n2cc(F)c(N)nc2=O)OC1CO` (stereo not drawn), the TGI with HOP-92 NSCLC, in the assay with SF-268 CNS, with SK-MEL-2 melanoma, in the assay with OVCAR-5 ovarian, in the assay on COLO 205 colon and in the assay with HCT-15 colon was above 100 µM throughout. Moreover, the TGI in the assay with A549 NSCLC, with CAKI-1 renal and in the assay with SN12C renal was above 100 µM each time.
With `CC1=C2C3OC(=O)C(C)C3C(O)C[C@@]2(C)C(=O)CC1` (stereo partly drawn), the TGI with HOP-92 NSCLC, with SF-268 CNS, with OVCAR-5 ovarian, in the assay on COLO 205 colon, with HCT-15 colon and with A549 NSCLC was above 100 µM throughout. For the same compound, the TGI with CAKI-1 renal, in the assay on A498 renal and in the assay on SN12C renal was above 100 µM in each case.
As to `CSc1nc2ccc(C)cc2cc1/C=C1/C=C(c2ccccc2)NC1=O`, the GI50 is 2.85 µM in the assay with HOP-92 NSCLC; 3.16 µM in the assay with SF-268 CNS; 6.31 µM in the assay with SK-MEL-2 melanoma; 19.3 µM in the assay on OVCAR-5 ovarian; 5.9 µM in the assay on COLO 205 colon; 14 µM with HCT-15 colon. The GI50 in the assay with A549 NSCLC was 3.54 µM; in the assay with CAKI-1 renal it was 1.21 µM; with SN12C renal, 4.53 µM. The TGI in the assay on HOP-92 NSCLC is 13.4 µM; in the assay on SF-268 CNS, 48 µM; in the assay with SK-MEL-2 melanoma it was 30.4 µM; in the assay on OVCAR-5 ovarian, above 100 µM; in the assay with COLO 205 colon, above 100 µM; with HCT-15 colon it was above 100 µM. Further, the TGI was 30.7 µM in the assay with A549 NSCLC, 10.9 µM with CAKI-1 renal and 32.3 µM in the assay on SN12C renal.
Regarding `CC1OC(=O)N2CCC=CC12` (stereo not drawn), the TGI with SF-268 CNS, with SK-MEL-2 melanoma, in the assay with OVCAR-5 ovarian, in the assay with COLO 205 colon, in the assay with HCT-15 colon and in the assay on A549 NSCLC was above 100 µM each time. Moreover, the TGI with A498 renal and in the assay on SN12C renal was above 100 µM throughout.
